The source of these data is patent US20110105509A1 (Wyeth, LLC, priority 2009, published 2011).

As a reminder, the pIC50 is the negative decadic logarithm of the IC50, by convention in mol/L. High values mean a low IC50, low ones a high IC50.

pIC50: −log10 of the molar value.

The target of the experiment is T1, CRTH2 (Homo sapiens, UniProt Q9Y5Y4).
T1 construct: expressed in transfected cells; host or cells: CHO cells
T1 sequence (Q9Y5Y4 1-395): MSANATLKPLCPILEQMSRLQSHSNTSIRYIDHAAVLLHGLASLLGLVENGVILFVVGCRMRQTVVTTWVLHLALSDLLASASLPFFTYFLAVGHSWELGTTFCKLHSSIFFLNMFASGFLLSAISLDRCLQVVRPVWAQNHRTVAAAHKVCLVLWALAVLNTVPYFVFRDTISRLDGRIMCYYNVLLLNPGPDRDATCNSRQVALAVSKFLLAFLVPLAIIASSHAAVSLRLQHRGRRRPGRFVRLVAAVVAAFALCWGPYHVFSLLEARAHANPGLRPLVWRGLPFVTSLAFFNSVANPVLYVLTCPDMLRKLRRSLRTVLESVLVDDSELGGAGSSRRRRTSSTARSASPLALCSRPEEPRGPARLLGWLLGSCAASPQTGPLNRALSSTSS
Put plainly: FRET based competitive immunoassay (cAMP) in CRTH2 expressing CHO cells. As to conditions: CRTH2 expressing CHO cells incubated with forskolin and PGD2; Eu3+ cryptate-labeled anti-cAMP and d2-labeled cAMP. Type of experiment: cell-based. The method, then:
FRET Assay: To evaluate potency compounds were tested in a FRET based competitive immunoassay in which CRTH2 expressing CHO cells were incubated in the presence of forskolin and PGD2 along with Eu3+ cryptate-labeled anti-cAMP and d2-labeled cAMP.
As to `Cc1c(-c2nn(Cc3ccncc3F)c(=O)c3ccccc23)c2cc(F)ccc2n1CC(=O)O` [Example 138, 2-(5-fluoro-3-(3-((3-fluoropyridin-4-yl)methyl)-4-oxo-3,4-dihydrophthalazin-1-yl)-2-methyl-1H-indol-1-yl)acetic acid], the pIC50 is 8.30.
In the case of `Cc1c(-c2ccc(=O)n(Cc3ccc(F)cc3)n2)c2cc(Cl)ccc2n1CC(=O)O` [Example 139, 2-(5-Chloro-3-(1-(4-fluorobenzyl)-6-oxo-1,6-dihydropyridazin-3-yl)-2-methyl-1H-indol-1-yl)acetic acid], the pIC50 is 7.62.
Regarding `Cc1c(-c2ccc(=O)n(CCOc3ccc(Cl)cc3)n2)c2cc(Cl)ccc2n1CC(=O)O` [Example 140, 2-(5-chloro-3-(1-(2-(4-chlorophenoxy)ethyl)-6-oxo-1,6-dihydropyridazin-3-yl)-2-methyl-1H-indol-1-yl)acetic acid], the pIC50 is 7.80.
As to `Cc1c(-c2ccc(=O)n(Cc3nc4ccccc4s3)n2)c2cc(Cl)ccc2n1CC(=O)O` [Example 141, 2-(3-(1-(benzo[d]thiazol-2-ylmethyl)-6-oxo-1,6-dihydropyridazin-3-yl)-5-chloro-2-methyl-1H-indol-1-yl)acetic acid], the pIC50 is 7.34.
With `Cc1c(-c2ccc(=O)n(Cc3ccc(F)cc3C(F)(F)F)n2)c2cc(Cl)ccc2n1CC(=O)O` [Example 142, 2-(5-chloro-3-(1-(4-fluoro-2-(trifluoromethyl)benzyl)-6-oxo-1,6-dihydro-pyridazin-3-yl)-2-methyl-1H-indol-1-yl)acetic acid] the figure was 7.72.
For `Cc1c(-c2ccc(=O)n(Cc3cccc(F)c3C(F)(F)F)n2)c2cc(Cl)ccc2n1CC(=O)O` [Example 143, 2-(5-chloro-3-(1-(3-fluoro-2-(trifluoromethyl)benzyl)-6-oxo-1,6-dihydro-pyridazin-3-yl)-2-methyl-1H-indol-1-yl)acetic acid] the value was 7.26; for `Cc1c(-c2ccc(=O)n(Cc3ccc4ccccc4n3)n2)c2cc(Cl)ccc2n1CC(=O)O` [Example 144, 2-(5-chloro-2-methyl-3-(6-oxo-1-(quinolin-2-ylmethyl)-1,6-dihydro-pyridazin-3-yl)-1H-indol-1-yl)acetic acid], 7.96.
`Cc1cc(Cn2nc(-c3c(C)n(CC(=O)O)c4ccc(Cl)cc34)ccc2=O)c2ccccc2n1` [Example 145, 2-(5-chloro-2-methyl-3-(1-((2-methylquinolin-4-yl)methyl)-6-oxo-1,6-dihydropyridazin-3-yl)-1H-indol-1-yl)acetic acid]: the negative logarithm of the IC50 (pIC50) is 6.84.
In turn, `Cc1ccc(Cn2nc(-c3c(C)n(CC(=O)O)c4ccc(Cl)cc34)ccc2=O)cc1` [Example 146, 2-(5-chloro-2-methyl-3-(1-(4-methylbenzyl)-6-oxo-1,6-dihydropyridazin-3-yl)-1H-indol-1-yl)acetic acid] gave a pIC50 of 7.13.
The compound `Cc1c(-c2ccc(=O)n(Cc3ccc(C(C)C)cc3)n2)c2cc(Cl)ccc2n1CC(=O)O` [Example 147, 2-(5-chloro-3-(1-(4-isopropylbenzyl)-6-oxo-1,6-dihydropyridazin-3-yl)-2-methyl-1H-indol-1-yl)acetic acid] had a pIC50 of 6.48.
Take `COc1ccc(Cn2nc(-c3c(C)n(CC(=O)O)c4ccc(Cl)cc34)ccc2=O)cc1` [Example 148, 2-(5-chloro-3-(1-(4-methoxybenzyl)-6-oxo-1,6-dihydropyridazin-3-yl)-2-methyl-1H-indol-1-yl)acetic acid]: the pIC50 was 7.38.
The compound `Cc1c(-c2ccc(=O)n(C)n2)c2cc(Cl)ccc2n1CC(=O)O` [Example 149, 2-(5-chloro-2-methyl-3-(1-methyl-6-oxo-1,6-dihydropyridazin-3-yl)-1H-indol-1-yl)acetic acid] gave a pIC50 of 5.67.
Consider `CCn1nc(-c2c(C)n(CC(=O)O)c3ccc(Cl)cc23)ccc1=O` [Example 150, 2-(5-chloro-3-(1-ethyl-6-oxo-1,6-dihydropyridazin-3-yl)-2-methyl-1H-indol-1-yl)acetic acid], for which the negative-log IC50 (pIC50) was 6.25.
With `Cc1c(-c2ccc(=O)n(CCOc3ccc(Cl)cc3)n2)c2cc(F)ccc2n1CC(=O)O` [Example 152, 2-(3-(1-(2-(4-chlorophenoxy)ethyl)-6-oxo-1,6-dihydropyridazin-3-yl)-5-fluoro-2-methyl-1H-indol-1-yl)acetic acid] the figure was 7.92; with `Cc1c(-c2ccc(=O)n(Cc3nc4ccccc4s3)n2)c2cc(F)ccc2n1CC(=O)O` [Example 153, 2-(3-(1-(benzo[d]thiazol-2-ylmethyl)-6-oxo-1,6-dihydropyridazin-3-yl)-5-fluoro-2-methyl-1H-indol-1-yl)acetic acid], 7.60; with `Cc1c(-c2ccc(=O)n(Cc3cccc(F)c3)n2)c2cc(F)ccc2n1CC(=O)O` [Example 154, 2-(5-Fluoro-3-(1-(3-fluorobenzyl)-6-oxo-1,6-dihydropyridazin-3-yl)-2-methyl-1H-indol-1-yl)acetic acid], 7.52.
Take `Cc1c(-c2ccc(=O)n(Cc3cccc(F)c3C(F)(F)F)n2)c2cc(F)ccc2n1CC(=O)O` [Example 156, 2-(5-fluoro-3-(1-(3-fluoro-2-(trifluoromethyl)benzyl)-6-oxo-1,6-dihydro-pyridazin-3-yl)-2-methyl-1H-indol-1-yl)acetic acid]: the negative-log IC50 (pIC50) is 7.60.
With `Cc1c(-c2ccc(=O)n(Cc3ccc4ccccc4n3)n2)c2cc(F)ccc2n1CC(=O)O` [Example 157, 2-(5-fluoro-2-methyl-3-(6-oxo-1-(quinolin-2-ylmethyl)-1,6-dihydro-pyridazin-3-yl)-1H-indol-1-yl)acetic acid] the figure was 7.24; with `Cc1cc(Cn2nc(-c3c(C)n(CC(=O)O)c4ccc(F)cc34)ccc2=O)c2ccccc2n1` [Example 158, 2-(5-fluoro-2-methyl-3-(1-((2-methylquinolin-4-yl)methyl)-6-oxo-1,6-dihydro-pyridazin-3-yl)-1H-indol-1-yl)acetic acid], 7.14.
Compound `Cc1c(-c2ccc(=O)n(C)n2)c2cc(F)ccc2n1CC(=O)O` [Example 159, 2-(5-fluoro-2-methyl-3-(1-methyl-6-oxo-1,6-dihydropyridazin-3-yl)-1H-indol-1-yl)acetic acid] had a pIC50 of 5.60.
As for `CCn1nc(-c2c(C)n(CC(=O)O)c3ccc(F)cc23)ccc1=O` [Example 160, 2-(3-(1-ethyl-6-oxo-1,6-dihydropyridazin-3-yl)-5-fluoro-2-methyl-1H-indol-1-yl)acetic acid], the pIC50 is 6.43.
In turn, `Cc1c(-c2ccc(=O)n(CC3CC3)n2)c2cc(F)ccc2n1CC(=O)O` [Example 161, 2-(3-(1-(cyclopropylmethyl)-6-oxo-1,6-dihydropyridazin-3-yl)-5-fluoro-2-methyl-1H-indol-1-yl)acetic acid] gave a negative logarithm of the IC50 (pIC50) of 7.64.
In turn, `Cc1c(-c2ccc(=O)n(CC(F)(F)F)n2)c2cc(F)ccc2n1CC(=O)O` [Example 162, 2-(5-Fluoro-2-methyl-3-(6-oxo-1-(2,2,2-trifluoroethyl)-1,6-dihydropyridazin-3-yl)-1H-indol-1-yl)acetic acid] had a pIC50 of 6.34.
In turn, `Cc1c(-c2ccc(=O)n(CCCC(F)(F)F)n2)c2cc(F)ccc2n1CC(=O)O` [Example 163, 2-(5-fluoro-2-methyl-3-(6-oxo-1-(4,4,4-trifluorobutyl)-1,6-dihydropyridazin-3-yl)-1H-indol-1-yl)acetic acid] had a pIC50 of 6.06.
On to `Cc1c(-c2ccc(=O)n(CCC(F)(F)F)n2)c2cc(F)ccc2n1CC(=O)O` [Example 164, 2-(5-fluoro-2-methyl-3-(6-oxo-1-(3,3,3-trifluoropropyl)-1,6-dihydro-pyridazin-3-yl)-1H-indol-1-yl)acetic acid], for which the negative-log IC50 (pIC50) is 6.39.
In turn, `Cc1c(-c2ccc(=O)n(CC(C)(C)C)n2)c2cc(F)ccc2n1CC(=O)O` [Example 165, 2-(5-fluoro-2-methyl-3-(1-neopentyl-6-oxo-1,6-dihydropyridazin-3-yl)-1H-indol-1-yl)acetic acid] gave a negative-log IC50 (pIC50) below 6.00.
In turn, `Cc1c(-c2nn(Cc3nc4ccccc4s3)c(=O)c3ccccc23)c2ccccc2n1CC(=O)O` [Example 167, 2-(3-(3-(benzo[d]thiazol-2-ylmethyl)-4-oxo-3,4-dihydrophthalazin-1-yl)-2-methyl-1H-indol-1-yl)acetic acid] showed a negative logarithm of the IC50 (pIC50) of 7.85.
`Cc1c(-c2nn(Cc3ccc(S(C)(=O)=O)cc3)c(=O)c3ccccc23)c2ccccc2n1CC(=O)O` [Example 168, 2-(2-methyl-3-(3-(4-(methylsulfonyl)benzyl)-4-oxo-3,4-dihydrophthalazin-1-yl)-1H-indol-1-yl)acetic acid] showed a pIC50 of 7.21.
For `Cc1c(-c2nn(Cc3ccc4ccccc4n3)c(=O)c3ccccc23)c2ccccc2n1CC(=O)O` [Example 169, 2-(2-methyl-3-(4-oxo-3-(quinolin-2-ylmethyl)-3,4-dihydrophthalazin-1-yl)-1H-indol-1-yl)acetic acid] the value was 7.85.
Turning to `Cc1c(-c2nn(Cc3ccc(OC(F)(F)F)cc3)c(=O)c3ccccc23)c2ccccc2n1CC(=O)O` [Example 170, 2-(2-methyl-3-(4-oxo-3-(4-(trifluoromethoxy)benzyl)-3,4-dihydrophthalazin-1-yl)-1H-indol-1-yl)acetic acid], the pIC50 was 7.60.
In turn, `Cc1c(-c2nn(Cc3ccc(C(F)(F)F)cc3)c(=O)c3ccccc23)c2ccccc2n1CC(=O)O` [Example 171, 2-(2-methyl-3-(4-oxo-3-(4-(trifluoromethyl)benzyl)-3,4-dihydrophthalazin-1-yl)-1H-indol-1-yl)acetic acid] had a pIC50 of 6.53.
